From PubChem BioAssay AID179 (DTP/NCI, 2004)
“And” between values parts separate entries of the source, which are not always exact repeats. Identical values can stand only once. The source made the active and inactive calls.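 The calls were made as follows: active = compounds giving half or more protection of infected cells from virus-caused growth loss, again on retest; inactive = the rest.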

System: CEM cells HIV-1 protection, formazan growth assay
Assay: NCI AIDS Antiviral Assay
Conditions: for IC50: measured here: growth of uninfected CEM cells
How it was run: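 Soluble formazan readout of cell growth; CEM cells ± HIV-1; 5 drug concs. ≥50% protection → retest; ≥50% again = moderately active; reproducible 100% = confirmed active.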

| Compound | outcome | EC50 | IC50 |
| --- | --- | --- | --- |
| Cc1ccc(NC(=O)CC(=O)n2nc(C)c(N=Nc3ccccc3Cl)c2C)cc1 | inactive | – | – |
| Oc1c([Si](c2ccccc2)(c2ccccc2)c2ccccc2)cc2ccccc2c1-c1c(O)c([Si](c2ccccc2)(c2ccccc2)c2ccccc2)cc2ccccc12 | – | > 50.1 µM | > 50.1 µM |
| CN(C)CC1CCCCCCCCCCC1=O (stereo not given) | – | > 200 µM | 117 µM and 93.3 µM |
| OC1c2c(ccc3c2CCC3)CC12Cc1ccccc1C2 (stereo not given) | – | > 200 µM | 38 µM |
| C/C(CC(=O)Nc1cccc(Cl)c1C)=N\N=C(N)N | – | > 91.2 µM | > 91.2 µM |
| C/C(=C\C(=O)OCCCCCCCC(=O)Nc1c2sscc-2[nH]c1=O)C(O)[C@@H]1OCC(C/C=C/[C@@H](C)[C@H](C)O)[C@@H](O)[C@H]1O (stereo not given in full) | – | > 200 µM | 3.16 µM |
| CCOC(=O)/C(C#N)=C/Nc1c(C)n(C)n(-c2ccccc2)c1=O | – | > 200 µM | > 200 µM |
| Cc1ccc(-c2n[nH]c(=O)[nH]2)cc1[N+](=O)[O-] | – | > 200 µM | > 200 µM |
| C(#Cc1ccccc1)SC1=C(c2ccccc2)S/C(=C(\SC#Cc2ccccc2)c2ccccc2)S1 | – | > 200 µM | > 200 µM |
| C(=N\NC1=NCCN1)/c1cccc2cc3ccncc3nc12 | – | > 200 µM | 0.891 µM |
| O=C1OC(Cc2ccccc2)=C(Cl)C(Cl)(Cc2ccccc2)C1Cl (stereo not given) | – | > 200 µM | 5.25 µM |
| CC1=NC2C(=O)N(C)C(=O)N(C)C2n2c(O)ccc21 (stereo not given) | – | > 2 µM | > 2 µM |
| C=C(Cc1ccc2c(c1)OCO2)C(=C)Cc1ccc(O)cc1O | – | > 200 µM | 55 µM |
| CC(=O)n1c(=S)n(C(C)=O)c2ccccc21 | – | > 200 µM | > 200 µM |
| Cc1cc(O)c(C=O)c2c1C(=O)Oc1c(C)c(O)c(C(=O)O)c(C)c1O2 | – | > 200 µM | 186 µM |
| CCOC(=O)/C=C(\CCOC1CCCCO1)[Si](C)(C)c1ccccc1 (stereo not given) | – | > 20 µM | > 20 µM |
| N#C/C(=C\c1ccccc1)c1nc(-c2cc3ccccc3oc2=O)cs1 | – | > 151 µM | > 151 µM |
| CCSc1ccc([N+](=O)[O-])c2c(SCC)c3ccccc3nc12 | inactive | – | – |
| CNc1cc(Cl)ccc1C(=O)N1CCC[C@H]1CO | – | > 200 µM | 191 µM |
| C[C@]12CC[C@@H]3c4cc(I)c(O)cc4CC[C@H]3[C@@H]1CC[C@@H]2O | – | > 200 µM | 2.09 µM |
| C=CC(C)(C)N[C@@H](C(=O)N1CCC[C@H]1c1nc(-c2nc(C(=O)OCC=C(C)C)c(C)o2)c(C)o1)C(C)C | – | > 200 µM | 58.9 µM |

| Compound | outcome | EC50 | IC50 |
| --- | --- | --- | --- |
| COC1/C=C/OC2(C)Oc3c(C)c(O)c4c(O)c(c(CNCc5ccccc5)c(O)c4c3C2=O)NC(=O)/C(C)=C\C=C\C(C)C(O)C(C)C(O)C(C)C(OC(C)=O)C1C (stereo not given) | – | > 200 µM | 1.51 µM |
| CC/C(Cl)=N\OC(=O)Nc1ccc(OC)c(C)c1 | – | > 20 µM | 15.8 µM |
| O=C(CSSCC(=O)OCCS(=O)(=O)Nc1ccc(Br)cc1)OCCS(=O)(=O)Nc1ccc(Br)cc1 | inactive | – | – |
| COc1ccc2c(c1)nc1n2C(N)=Nc2ccccc2S1 | – | > 200 µM | 11.5 µM |
| CCOC(=O)c1ccc(CS(=O)c2ccc(C)cc2)c([N+](=O)[O-])c1 (stereo not given) | – | > 74.1 µM | 14.5 µM |
| O=Cc1nc2ccccc2s1 | inactive | – | – |
| CCC(C)SC1SCC2C(=O)N(C)C3(CC3C)C(=O)OCC(NC(=O)c3nc4ccccc4cc3O)C(=O)NC(C)C(=O)N(C)C1C(=O)N(C)C1(CC1C)C(=O)OCC(NC(=O)c1nc3ccccc3cc1O)C(=O)NC(C)C(=O)N2C (stereo not given) | – | > 0.02 µM | 8.71e-05 µM |
| CC(C)(C)c1cc(/C=C/C(=O)CC(=O)/C=C/c2cc(C(C)(C)C)c(O)c(C(C)(C)C)c2)cc(C(C)(C)C)c1O | – | > 200 µM | > 200 µM |
| CCCCN=NNc1cn(C2OC(CO)C(O)C2O)c(=O)[nH]c1=O (stereo not given) | – | > 200 µM | > 200 µM |
| Cc1cc(=O)n2cn[nH]c2n1 | – | > 200 µM | > 200 µM |
| C[C@H]1OCN2C(=O)c3ccccc3SC(=O)[C@H]12 | – | > 200 µM | > 200 µM |
| CCOP(=O)(OCC)/C(C#N)=C/c1cccn1Cc1ccccc1 | – | > 200 µM | 25.1 µM |
| C#CCOCn1cnc2ncnc(N)c21 | – | > 1230 µM | > 1230 µM |
| CO[C@H]1/C=C/O[C@@]2(C)Oc3c(C)c(O)c4c(O)c(c(/C=N/N5C(C)CN(Cc6ccccc6)CC5C)c(O)c4c3C2=O)NC(=O)/C(C)=C\C=C\[C@H](C)[C@H](O)[C@@H](C)[C@@H](O)[C@@H](C)[C@H](OC(C)=O)[C@@H]1C (stereo not given in full) | – | > 200 µM | 9.77 µM |
| COC(=O)N/N=C(\C)C(CN(C)C)C(c1ccccc1)c1c(O)c2ccccc2oc1=O (stereo not given) | – | > 28.8 µM | > 28.8 µM |
| C[N+](C)(C)c1ccc(/C=C2\C=Cc3ccccc32)cc1 | inactive | – | – |
| O=C(/C=C/c1ccccc1F)c1ccccc1 | – | > 22.9 µM | > 22.9 µM |
| CCOC(Cc1c(N)[nH]c(=S)[nH]c1=O)OCC | – | > 200 µM | > 200 µM |
| Nc1nc(=O)nc2[nH]c3c4cccc5cccc(c3nc12)c54 | – | > 200 µM | 141 µM and > 200 µM |
| COC(=O)/C(=N\NC(N)=O)C(C(=O)C=C(C)C)C(=O)C(=O)Nc1ccc(Cl)c(Cl)c1 (stereo not given) | – | > 550 µM | 457 µM |
| O=C(Nc1nc2ncn(CCI)c2c(=O)[nH]1)c1ccccc1 | – | > 63.1 µM | > 63.1 µM |

| Compound | outcome | EC50 | IC50 |
| --- | --- | --- | --- |
| CC(=O)Oc1ccc(-c2cc3ccccc3oc2=O)cc1 | – | > 200 µM | 28.2 µM |
| CC1(c2ccccc2)CCCC/C1=N/NC(N)=O (stereo not given) | – | 105 µM | 129 µM |
| CC(=O)OCC(OC(C)=O)C(OC(C)=O)C(/C=N\Nc1nc2ccccc2c(=O)[nH]1)=N\Nc1nc2ccccc2c(=O)[nH]1 (stereo not given) | – | > 200 µM | > 200 µM |
| O=C(c1ccccc1)[C@H]1Nc2ccc(Cl)cc2[C@H]2c3ccccc3O[C@H]21 | – | > 27.5 µM | > 27.5 µM |
| COc1cccc2ccc(C(=O)c3ccccc3)nc12 | – | > 97.7 µM | > 97.7 µM |
| O=S1[C@H](c2ccccc2)c2c(-c3ccccc3)sc(-c3ccccc3)c2[C@@H]1c1ccccc1 (stereo not given in full) | inactive | – | – |
| O=C(Nc1c(Cl)cc([N+](=O)[O-])cc1Cl)C(=O)C(C(=O)c1ccncc1)C1OC(=O)c2ccccc21 (stereo not given) | inactive | – | – |
| COc1ccc(Cc2c(N)[nH]c(=O)[nH]c2=O)cc1 | – | > 200 µM | > 200 µM |
| OCC(O)C1OC2CC1Nc1ccccc1N2 (stereo not given) | – | > 200 µM | 97.7 µM |
| CCN(CCO)C(=O)C1(c2ccccc2)CCCCC1 | – | > 501 µM | 60.3 µM |
| COc1ccc2[nH]c3c(c2c1)[C@H](C)C[C@@H]1C(=O)N(c2ccccc2)C(=O)[C@H]31 | inactive | – | – |
| CCOC(=O)C1Cc2ccc(C)cc2C1=O (stereo not given) | – | > 200 µM | 110 µM |
| CCCc1cc(=O)oc2c3c(cc(OC(C)C)c12)O[C@@H](C)[C@H](C)[C@H]3O | – | > 200 µM | 11.7 µM |
| CC[C@@H]1NC(C(=O)OC)Cc2c1[nH]c1ccccc21 (stereo not given in full) | inactive | – | – |
| COc1cc(/C=C2\C(=O)N(c3ccc(NC(C)=O)cc3)C(c3ccccc3)S2(=O)=O)cc(OC)c1OC (stereo not given) | – | > 200 µM | 87.1 µM |
| O=C(Nc1ccccc1)N1CC(CN2CCN(c3ccccc3)CC2)OC1=O (stereo not given) | – | > 200 µM | > 200 µM |
| CCCCC#C[I+]c1ccccc1 | inactive | – | – |
| CN(C)CCCNC(=O)CCNC(=O)c1cc(NC(=O)c2cc(NC(=O)c3cc(NC(=O)c4nc(NC(=O)CCCNC(=O)c5cc(NC(=O)c6cc(NC(=O)c7cc(NC(=O)c8nccn8C)cn7C)cn6C)cn5C)cn4C)cn3C)cn2C)cn1C | – | > 141 µM | 24.5 µM |
| COc1ccc(/C(C#N)=C/c2cccc(N)c2)cc1 | – | > 200 µM | 25.1 µM |
| CCCC(=O)Nc1ccc(O)c2c1C1CCCCCC21 (stereo not given) | – | > 200 µM | 102 µM |
| COc1cc(NC(C)=O)c2[nH]c3c(C)cc(NC(C)=O)c(C)c3c2c1 | inactive | – | – |

| Compound | outcome | EC50 | IC50 |
| --- | --- | --- | --- |
| Cc1c(Cl)c(=O)oc2cc(O)ccc12 | – | > 324 µM | 174 µM |
| Cc1ccc(C)c(NC(=O)CC2SC(=Nc3ccccc3Cl)NC2=O)c1 (stereo not given) | – | > 67.6 µM | > 67.6 µM |
| N#CC12Cc3ccc4c(c3-c3cccc(c31)CCN2C(=O)c1ccccc1)OCO4 (stereo not given) | inactive | – | – |
| CC(C)N(C(=O)C12C3C4C5(C#N)C3C1(C#N)C5C42C#N)C(C)C (stereo not given) | – | > 32.4 µM | > 32.4 µM |
| CC(c1ccccc1)[P+](c1ccccc1)(c1ccccc1)c1ccccc1 (stereo not given) | – | > 200 µM | 1.32 µM |
| O=C1NC(Nc2ccccc2)=NC(C(F)(F)F)(C(F)(F)F)N1 | – | > 200 µM | 36.3 µM |
| Cc1ccccc1NC(=O)/C(C#N)=N\Nc1nc[nH]c1C(N)=O | – | > 200 µM | 0.257 µM |
| CCCCCOC(=O)C(=O)Nc1n[nH]nc1C(N)=O | – | > 200 µM | > 200 µM |
| CCOC(=O)CCC1(C)OC[C@H]2OC(n3cc(C)c(=O)[nH]c3=O)C[C@H]2N1O (stereo not given in full) | – | > 200 µM | > 200 µM |
| O=P1(NC2CCCC2)OCC2(CO1)COP(=O)(NC1CCCC1)OC2 (stereo not given) | – | > 200 µM | > 200 µM |
| COc1ccc2c(c1)C1c3ccccc3CCN1CCC2 (stereo not given) | – | > 200 µM | 79.4 µM |
| Cn1c(Nc2ccccc2)c(C=Nc2ccccc2)c(=O)n(C)c1=O | – | > 100 µM | 53.7 µM |
| O=C(NCCCCCCNC(=O)n1cc(F)c(=O)[nH]c1=O)NCCCOCCOCCOCCOCCOCCOCCOCCOCCOCCOCCOCCOCCOCCOCCOCCOCCOCCOCCOCCOCCOCCCNC(=O)C(O)C(O)C(OC1OC(CO)C(O)C(O)C1O)C(O)CO (stereo not given) | inactive | – | – |
| C=C(CCCCCOCOCCOC)[Si](C)(C)C | – | > 26.3 µM | > 26.3 µM |
| O=S(=O)(O)Cc1ccc([As](=O)(O)O)cc1 | – | > 200 µM | 129 µM |
| NC(=O)NCCC[C@H](NC(=O)[C@H](CS)NC(=O)[C@@H](N)Cc1cnc[nH]1)C(=O)N[C@H](Cc1ccccc1)C(=O)N[C@@H](Cc1c[nH]c2ccccc12)C(=O)N[C@@H](Cc1c[nH]c2ccccc12)C(N)=O | – | > 200 µM | > 200 µM |
| CC1(C)C(=O)C(C)(C)C(=O)C(C)(C)C1=O | inactive | – | – |
| Cc1ccc(/C([O-])=C(/C(=S)Nc2ccccc2)[n+]2ccccc2)cc1 | – | > 200 µM | > 200 µM |
| COc1ccc(-c2[nH]c3ccccc3c2-c2ccc(OC)cc2)cc1 | – | > 200 µM | 12.9 µM |
